Results taken from publication PMC9425443 (RSC Advances, 2022).
Counter-ions that a name gives are not always drawn.

What was measured:
CYP142A1 C281S [1] = target: T1, CYP142A1 C281S (Mycobacterium tuberculosis, UniProt P9WPL5, C281S); assay type: biochemical
CYP142A1 C110S [2] = target: T2, CYP142A1 C110S (Mycobacterium tuberculosis, UniProt P9WPL5, C110S); assay type: biochemical
CYP142A1 C123S [3] = target: T3, CYP142A1 C123S (Mycobacterium tuberculosis, UniProt P9WPL5, C123S); assay type: biochemical
CYP142A1 C118S [4] = target: T4, CYP142A1 C118S (Mycobacterium tuberculosis, UniProt P9WPL5, C118S); assay type: biochemical
CYP142A1 C316S [5] = target: T5, CYP142A1 C316S (Mycobacterium tuberculosis, UniProt P9WPL5, C316S); assay type: biochemical
CYP142A1 C296S [6] = target: T6, CYP142A1 C296S (Mycobacterium tuberculosis, UniProt P9WPL5, C296S); assay type: biochemical
CYP142A1 C296S [7] = target: T6, CYP142A1 C296S; details: pH 7.4
CYP142A1 C123S [8] = target: T3, CYP142A1 C123S; details: pH 7.4
CYP142A1 C316S [9] = target: T5, CYP142A1 C316S; details: pH 7.4
CYP142A1 C118S [10] = target: T4, CYP142A1 C118S; details: pH 7.4
CYP142A1 C110S [11] = target: T2, CYP142A1 C110S; details: pH 7.4
CYP142A1 C281S [12] = target: T1, CYP142A1 C281S; details: pH 7.4

Molecule | kcat (CYP142A1 C281S [1]) | kcat (CYP142A1 C110S [2]) | kcat (CYP142A1 C123S [3]) | kcat (CYP142A1 C118S [4]) | kcat (CYP142A1 C316S [5]) | kcat (CYP142A1 C296S [6]) | Kd (CYP142A1 C296S [7]) | Kd (CYP142A1 C123S [8]) | Kd (CYP142A1 C316S [9]) | Kd (CYP142A1 C118S [10]) | Kd (CYP142A1 C110S [11]) | Kd (CYP142A1 C281S [12])
CC(C)CCC[C@@H](C)[C@H]1CC[C@H]2[C@@H]3CCC4=CC(=O)CC[C@]4(C)[C@H]3CC[C@]12C [Cholest-4-en-3-one] | 0.0917 ± 0.00617 s⁻¹ | 0.11 ± 0.0113 s⁻¹ | 0.085 ± 0.00617 s⁻¹ | 0.0933 ± 0.00633 s⁻¹ | 0.0783 ± 0.00617 s⁻¹ | 0.0767 ± 0.00583 s⁻¹ |  |  |  |  |  | 
Cholesteryl propionate |  |  |  |  |  |  | 48 ± 5.9 µM | 23 ± 5 µM | 46 ± 6.8 µM | 43 ± 10 µM | 35 ± 4.9 µM | 47 ± 7.6 µM
CC(C)CCC[C@@H](C)[C@H]1CC[C@H]2[C@@H]3CC=C4C[C@@H](OS(=O)(=O)O)CC[C@]4(C)[C@H]3CC[C@]12C [Cholesteryl sulfate] |  |  |  |  |  |  | 25 ± 9.6 µM | 35 ± 9.3 µM | 26 ± 8 µM | 33 ± 4.3 µM | 37 ± 8.7 µM | 37 ± 8.8 µM
